Experimental data taken from BindingDB's records for doi:10.3109/14756366.2011.637202 (Agri Ibrahim Cecen University, 2012).

Assays:
Assay in all cases: Esterase Activity Assay
Carbonic anhydrase 6 = Carbonic anhydrase 6 (Homo sapiens, UniProt P23280)
Carbonic anhydrase 1 = Carbonic anhydrase 1 (Homo sapiens, UniProt P00915)
Carbonic anhydrase 4 = Carbonic anhydrase 4 (Homo sapiens, UniProt P22748)
Carbonic anhydrase 2 = Carbonic anhydrase 2 (Homo sapiens, UniProt P00918)

Carbonic anhydrase 4, sequence (P22748 whole entry): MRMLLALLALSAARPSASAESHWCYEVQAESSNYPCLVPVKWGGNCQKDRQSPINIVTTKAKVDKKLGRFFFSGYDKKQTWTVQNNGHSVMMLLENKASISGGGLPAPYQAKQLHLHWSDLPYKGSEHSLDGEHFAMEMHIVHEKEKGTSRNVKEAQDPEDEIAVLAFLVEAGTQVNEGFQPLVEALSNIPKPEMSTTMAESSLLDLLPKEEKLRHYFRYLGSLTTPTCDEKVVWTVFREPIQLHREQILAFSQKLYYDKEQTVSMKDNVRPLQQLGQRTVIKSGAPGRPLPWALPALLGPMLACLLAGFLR
Carbonic anhydrase 1, sequence (P00915 whole entry): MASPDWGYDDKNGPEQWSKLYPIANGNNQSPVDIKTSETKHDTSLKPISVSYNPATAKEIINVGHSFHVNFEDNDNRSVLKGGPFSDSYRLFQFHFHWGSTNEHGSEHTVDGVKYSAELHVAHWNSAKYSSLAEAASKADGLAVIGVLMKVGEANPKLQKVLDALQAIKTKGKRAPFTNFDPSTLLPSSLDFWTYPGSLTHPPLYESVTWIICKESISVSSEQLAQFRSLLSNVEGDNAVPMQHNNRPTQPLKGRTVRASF
Carbonic anhydrase 6, sequence (P23280 whole entry): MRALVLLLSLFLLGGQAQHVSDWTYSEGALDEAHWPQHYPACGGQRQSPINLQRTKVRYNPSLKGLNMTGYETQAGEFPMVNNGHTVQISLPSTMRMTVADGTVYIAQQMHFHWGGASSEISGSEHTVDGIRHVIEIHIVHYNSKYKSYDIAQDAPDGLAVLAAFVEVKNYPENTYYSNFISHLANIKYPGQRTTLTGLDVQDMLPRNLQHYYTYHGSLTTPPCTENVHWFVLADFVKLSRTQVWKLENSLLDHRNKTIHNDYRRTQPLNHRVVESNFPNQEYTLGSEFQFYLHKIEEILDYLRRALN

| Ki (Carbonic anhydrase 6) | Ki (Carbonic anhydrase 1) | Ki (Carbonic anhydrase 4) | Ki (Carbonic anhydrase 2) | SMILES |
| --- | --- | --- | --- | --- |
| 313 µM | 196 µM | 41.6 µM | 28.5 µM | CS(=O)(=O)Oc1ccccc1OS(C)(=O)=O [1,2-Phenylenedimethanesulfonate (13)] |
| 105 µM | 27.4 µM | 15.4 µM | 8.7 µM | CS(=O)(=O)Oc1ccccc1 [Phenylmethanesulfonate (4)] |
| 28.4 µM | 22.1 µM | 9.12 µM | 4.23 µM | CS(=O)(=O)Oc1ccc(OS(C)(=O)=O)cc1 [1,4-Phenylene dimethanesulfonate (6)] |
| 217 µM |  | 3.56 µM | 2.98 µM | COc1ccccc1O [1-Hydroxy-2-methoxybenzene] |
| 6.83 µM |  | 0.49 µM | 0.52 µM | Oc1cccc(O)c1O |
| 458 µM | 478 µM | 45.1 µM | 35.4 µM | CS(=O)(=O)Oc1cccc(OS(C)(=O)=O)c1OS(C)(=O)=O [Benzene-1,2,3-triyltrimethanesulfonate (11)] |
| 12.1 µM | 79.1 µM | 8.14 µM | 6.45 µM | COc1cc(C=O)ccc1OS(C)(=O)=O [4-Formyl-2-methoxyphenyl methanesulfonate (15)] |
| 162 µM | 48.5 µM | 26.5 µM | 12.2 µM | CS(=O)(=O)Oc1ccc(-c2ccccc2)cc1 [Biphenyl-4-ylmethanesulfonate (5)] |

| SMILES | Ki (Carbonic anhydrase 6) | Ki (Carbonic anhydrase 1) | Ki (Carbonic anhydrase 4) | Ki (Carbonic anhydrase 2) |
| --- | --- | --- | --- | --- |
| Oc1ccc(-c2ccccc2)cc1 [4-Hydroxybiphenyl] | 85 µM | 19.5 µM | 12.3 µM | 7.41 µM |
| Oc1ccccc1 |  |  | 9.7 µM | 5.6 µM |
